From US8975280B2, “Deoxynojirimycin and D-arabinitol analogs and methods of using” (The Chancellor, Masters and Scholars of The University of …, priority 2006, dated 2015)

Molecular target: T1, glucosidase II (Homo sapiens, UniProt Q14697)
T1 construct: endogenous in cells; host or cells: HL60 cells
T1 sequence (Q14697 29-944): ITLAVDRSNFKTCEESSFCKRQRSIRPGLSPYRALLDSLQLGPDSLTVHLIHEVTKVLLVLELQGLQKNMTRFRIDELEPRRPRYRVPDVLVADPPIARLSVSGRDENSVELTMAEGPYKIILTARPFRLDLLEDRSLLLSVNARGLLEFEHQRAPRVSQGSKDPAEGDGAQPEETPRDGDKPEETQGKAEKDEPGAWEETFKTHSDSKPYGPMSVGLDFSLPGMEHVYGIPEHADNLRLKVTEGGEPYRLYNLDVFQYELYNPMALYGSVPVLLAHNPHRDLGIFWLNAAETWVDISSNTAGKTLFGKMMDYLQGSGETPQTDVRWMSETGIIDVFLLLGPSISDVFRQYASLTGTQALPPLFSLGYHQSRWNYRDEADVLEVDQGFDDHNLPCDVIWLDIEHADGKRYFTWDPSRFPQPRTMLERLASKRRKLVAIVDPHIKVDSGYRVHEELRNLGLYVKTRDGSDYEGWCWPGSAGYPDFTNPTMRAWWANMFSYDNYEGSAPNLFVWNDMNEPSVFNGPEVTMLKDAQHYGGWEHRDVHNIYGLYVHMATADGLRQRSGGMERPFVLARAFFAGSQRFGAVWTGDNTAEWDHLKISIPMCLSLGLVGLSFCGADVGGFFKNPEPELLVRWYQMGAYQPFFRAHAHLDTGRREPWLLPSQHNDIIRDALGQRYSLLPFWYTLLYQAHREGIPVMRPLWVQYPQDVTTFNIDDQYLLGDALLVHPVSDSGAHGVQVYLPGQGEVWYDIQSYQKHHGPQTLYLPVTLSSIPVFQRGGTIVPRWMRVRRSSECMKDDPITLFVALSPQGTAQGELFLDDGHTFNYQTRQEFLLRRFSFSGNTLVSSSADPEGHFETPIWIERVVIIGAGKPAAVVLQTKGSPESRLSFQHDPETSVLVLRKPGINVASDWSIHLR
T1 sequence (P14314 15-528 partner): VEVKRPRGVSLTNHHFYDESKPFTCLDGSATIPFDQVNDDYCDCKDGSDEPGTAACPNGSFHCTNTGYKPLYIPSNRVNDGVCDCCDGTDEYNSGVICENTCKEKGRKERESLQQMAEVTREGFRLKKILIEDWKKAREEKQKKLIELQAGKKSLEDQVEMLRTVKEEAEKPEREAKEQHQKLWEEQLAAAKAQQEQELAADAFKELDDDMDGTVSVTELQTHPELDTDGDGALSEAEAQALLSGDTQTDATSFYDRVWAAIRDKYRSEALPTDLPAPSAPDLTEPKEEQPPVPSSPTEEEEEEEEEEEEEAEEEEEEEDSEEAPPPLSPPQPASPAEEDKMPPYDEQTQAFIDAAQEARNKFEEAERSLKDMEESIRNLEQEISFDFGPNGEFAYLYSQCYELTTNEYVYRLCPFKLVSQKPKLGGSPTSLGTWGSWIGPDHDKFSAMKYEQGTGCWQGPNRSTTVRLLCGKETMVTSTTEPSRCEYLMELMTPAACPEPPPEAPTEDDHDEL
Assay: Inhibition of glucosidase II in HL60 cells, free oligosaccharide (G1M5N) analysis by NP-HPLC
Type: cell-based
Details: 24 h
Procedure: The effect of an ER-glucosidase inhibitor on cells was evaluated using an assay method by modifying known methods. (H. R. Mellor et al., Cellular Effects of Deoxynojirimycin Analogues: Inhibition of N-Linked Oligosaccharide Processing and Generation of Free Glucosylated Oligosaccharides, 381 Biochem. J. 867-875 (2004). The detection of free oligosaccharides following imino sugar treatment to generate misfolded protein that is degraded in the cytosol is an accurate measure of cell ER entry and inhibition of glycoprotein processing of α-glucosidases I and II by imino sugars.
Cells were cultured to high density (×10^7 cells/ml) prior to growth in fresh medium containing NB-DNJ at varying concentrations. The cells were seeded at a lower density so as to achieve a high density at the end of the incubation period. […] The conditions for extraction of FOS were determined to maximize recovery of FOS. […]
ConA-Sepharose purified 2-AA-labeled oligosaccharides were separated by NP-HPLC using a 4.6×250 mm TSKgel Amide-80 column (Anachem, Luton, UK) with slight modifications to known methods. (D. C. Neville, et al.) The chromatography system consisted of a Waters Alliance 2695 separations module and an in-line Waters 474 fluorescence detector set at an excitation wavelength of 360 nm and emission wavelength of 425 nm. […]

[N-]=[N+]=Nc1ccc(NCCCCCCN2C[C@H](O)[C@@H](O)[C@H](O)[C@H]2CO)c([N+](=O)[O-])c1 [NAP-DNJ, N—(N′-{4′azido-2′-nitrophenyl)-6-aminohexyl)-deoxynojirimycin]
concentration at which glucosidase II is inhibited in cells: 1 to 10 µM
